Results: patent publication EP0845478B1, “Reductive alkylation of glycopeptide antibiotics” (ELI LILLY AND COMPANY, priority 1996, dated 1998)
“Also recorded” adds a separate entry of the source.

Legend:
[1] = Solubility of copper salts in methanol, with pH; assay type: physicochemical; conditions: for pH: pH of copper salt (0.165 mmol) in 50 mL methanol after 15 min stirring, before nucleus is added; for Salt Solubility in MeOH: copper salt (0.165 mmol) in 50 mL methanol, stirred at ambient temperature for 15 min
Procedure: (§1) The same copper salts were further evaluated for their solubility in methanol and for the solubility of the starting glycopeptide antibiotic in their presence. The procedure was as follows: the copper salt (0.165 mmol) was added to 50 mL methanol and stirred at ambient temperature for 15 min. Solubility data was recorded as well as the pH. […] Solubility and pH data was recorded.

[2] = Solubility of the starting glycopeptide antibiotic (nucleus) in methanol in the presence of the copper salt, with pH; assay type: physicochemical; conditions: stirred 15 min; for pH: pH after addition of glycopeptide nucleus (0.26 mmol) to copper salt in 50 mL methanol; for nucleus solubility in presence of salt: Glycopeptide nucleus (0.55 g, 0.26 mmol) added to copper salt (0.165 mmol) in 50 mL methanol
Procedure: as §1

pH [1]	pH [2]	Salt Solubility in MeOH [1]	nucleus solubility in presence of salt [2]	Compound
3.2	6.6	soluble, clear colorless	slightly, cloudy purple	[Cl][Cu][Cl] [CuCl2]
3.7	6.2	soluble, clear colorless	slightly, cloudy purple	O.O.O.O.O.O=S(=O)([O-])[O-].[Cu+2] [CuSO4·5H2O]

The remaining lines, values behind:

Compound	pH [1]	pH [2]	Salt Solubility in MeOH [1]	nucleus solubility in presence of salt [2]
CCCCC(CC)C(=O)[O-].CCCCC(CC)C(=O)[O-].[Cu+2] (centres unmarked) [Cu(2-ethylhexanoate)2]	6.5	~6.7	–	–
[Br][Cu][Br] [CuBr2]	2.8	5.9	soluble, clear yellow	soluble, clear purple
O=C([O-])C(F)(F)F.O=C([O-])C(F)(F)F.[Cu+2] [Cu(O2CCF3)2]	4.4	6.2	soluble, clear lite blue	soluble, clear purple
[F][Cu][F] [CuF2]	5.9	7.0	nearly insoluble; also recorded: low, cloudy white soln	slightly, cloudy pink
O=C([O-])CCCC1CCCCC1.O=C([O-])CCCC1CCCCC1.[Cu+2] [Cu(cyclohexanebutyrate)2]	6.0	~6.7	faint cloudiness, lite blue-green	complete dissolution; also recorded: soluble, clear purple
[Cu+2].[OH-].[OH-] [Cu(OH)2]	6.2	7.0	nearly insoluble; also recorded: low, cloudy lite blue soln	slightly, cloudy lite blue
CC(=O)[O-].CC(=O)[O-].[Cu+2] [Cu(OAc)2]	6.5	~6.7	–	–
